In ChEMBL document CHEMBL1137096, “Optimization and metabolic stabilization of a class of nonsteroidal glucocorticoid modulators” (Bioorg Med Chem Lett, 2004) one finds bioavailability data, which are given here for one molecule.

The data set is described as follows: in vivo. Particulars: rat.

Take `Cc1c(NS(C)(=O)=O)cccc1N(Cc1ccccc1)Cc1ccc(Oc2cccc(OCCCC(=O)NCCCC(=O)O)c2)cc1`: the bioavailability was determined as 12%.

What is called bioavailability is the share of a dose that reaches the circulation, judged against a reference dose that is usually intravenous. The low end stands for poor availability, the high end for good availability.
